We go through nine compounds from ChEMBL document CHEMBL3525982, “Metabolism and pharmacokinetics of indacaterol in humans” (Drug Metab Dispos, 2012).

A short description of data set [1]: Drug recovery in healthy human feces treated with [14C]indacaterol at 800 ug, po as single dose after 168 hrs postdose by liquid scintillation counting. In kind it is ADME, organism-based. The note with it: in vivo.
The nature of data set [2]: Drug recovery in healthy human feces at 800 ug, po as single dose measured after 168 hrs postdose by liquid scintillation counting. The following applies: in vivo. In kind it is ADME, organism-based.
A short description of data set [3]: Drug recovery in healthy human urine treated with [14C]indacaterol at 800 ug, po as single dose after 168 hrs postdose by liquid scintillation counting. In kind it is ADME, organism-based. The note with it: in vivo.
The subject of data set [4] is Serum. The data set is described as follows: Drug level in healthy human serum treated with [14C]indacaterol at 800 ug, po as single dose at 2 hrs by HPLC analysis. In kind it is ADME, organism-based. The note with it: in vivo.
Data set [5] has as its system Serum. As to the kind of experiment: AUC (0 to 24 hrs) in healthy human serum treated with [14C]indacaterol at 800 ug, po as single dose by HPLC analysis relative to total radioactivity. In kind it is ADME, organism-based. The note with it: in vivo.
The test system of data set [6] is Serum. As to the kind of experiment: AUC (0 to 24 hrs) in healthy human serum treated with [14C]indacaterol at 800 ug, po as single dose by HPLC analysis. It counts as ADME, organism-based. Details: time < 24 hr, dose 800 ug, route oral. The following applies: in vivo.
Data set [7] deals with Serum. The data set is described as follows: Drug level in healthy human serum treated with [14C]indacaterol at 800 ug, po as single dose at 2 hrs by HPLC analysis relative to total radioactivity. The note with it: in vivo. It counts as ADME, organism-based.
A short description of data set [8]: Drug recovery in healthy human urine at 800 ug, po as single dose after 168 hrs postdose by liquid scintillation counting. In kind it is ADME, organism-based. The following applies: in vivo.
The nature of data set [9]: Cmax in healthy human at 800 ug, po as single dose by LC-MS/MS analysis. The following applies: in vivo. Details: dose 800 ug, route oral. It counts as ADME, organism-based.
A short description of data set [10]: Tmax in healthy human at 800 ug, po as single dose by LC-MS/MS analysis. It counts as ADME, organism-based. The note with it: in vivo.
Data set [11] can be described thus: Drug recovery in healthy human feces at 800 ug, po as single dose after 168 hrs postdose by liquid scintillation counting. In kind it is ADME, organism-based. The following applies: in vivo.
The nature of data set [12]: AUC (0 to 12 hrs) in healthy human at 800 ug, po as single dose by LC-MS/MS analysis. It counts as ADME, organism-based. Details: dose 800 ug, time < 12 hr, route oral. The note with it: plasma.
The test system of data set [13] is Serum. As to the kind of experiment: Drug metabolism in healthy human serum treated with [14C]indacaterol at 800 ug, po as single dose by HPLC analysis. In kind it is ADME, organism-based. The following applies: in vivo.
Data set [14] deals with Serum. The data set is described as follows: Drug level in healthy human serum at 800 ug, po as single dose at 2 hrs by HPLC analysis relative to total radioactivity. In kind it is ADME, organism-based. The note with it: in vivo.
The subject of data set [15] is Serum. The data set is described as follows: AUC (0 to 24 hrs) in healthy human serum at 800 ug, po as single dose by HPLC analysis. It counts as ADME, organism-based. Details: time < 24 hr, dose 800 ug, route oral. The following applies: in vivo.
The subject of data set [16] is Serum. As to the kind of experiment: AUC (0 to 24 hrs) in healthy human serum at 800 ug, po as single dose by HPLC analysis relative to total radioactivity. In kind it is ADME, organism-based. The note with it: in vivo.
Data set [17] can be described thus: Drug recovery in healthy human urine assessed as total radioactivity at 800 ug, po as single dose after 168 hrs postdose by liquid scintillation counting. The note with it: in vivo. In kind it is ADME, organism-based.
In data set [18] the test system is Serum. The data set is described as follows: Drug level in healthy human serum at 800 ug, po as single dose at 2 hrs by HPLC analysis. In kind it is ADME, organism-based. The following applies: in vivo.
Data set [19] relates to Serum. As to the kind of experiment: Drug metabolism in healthy human serum assessed as (2S,3S,4S,5R,6R)-6-((5,6-diethyl-2,3-dihydro-1H-inden-2-yl)((S)-2-hydroxy-2-(8-hydroxy-2-oxo-1,2-dihydroquinolin-5-yl)ethyl)amino)-3,4,5-trihydroxytetrahydro-2H-pyran-2-carboxylic acid formation at 800 ug, po as single dose by HPLC analysis. The note with it: in vivo. It counts as ADME, organism-based.

Data set [20] has as its system Serum. As to the kind of experiment: Drug metabolism in healthy human serum assessed as 2-(5,6-diethyl-2,3-dihydro-1H-inden-2-ylamino)acetic acid formation at 800 ug, po as single dose by HPLC analysis. The following applies: in vivo. In kind it is ADME, organism-based.
Data set [21] relates to Serum. The data set is described as follows: Drug metabolism in healthy human serum assessed as 5,6-diethyl-2,3-dihydro-1H-inden-2-amine formation at 800 ug, po as single dose by HPLC analysis. In kind it is ADME, organism-based. The note with it: in vivo.
Data set [22] can be described thus: Drug recovery in healthy human feces assessed as total radioactivity at 800 ug, po as single dose after 168 hrs postdose by liquid scintillation counting. The following applies: in vivo. It counts as ADME, organism-based.
Data set [23] relates to Homo sapiens. The data set is described as follows: Tmax in healthy human assessed as total radioactivity at 800 ug, po as single dose by LC-MS/MS analysis. It counts as ADME, organism-based. The following applies: in vivo.
For data set [24], the system named is Homo sapiens. As to the kind of experiment: Cmax in healthy human assessed as total radioactivity at 800 ug, po as single dose by LC-MS/MS analysis. It counts as ADME, organism-based. Details: dose 800 ug, route oral. The following applies: in vivo.
Data set [25] has as its system Homo sapiens. As to the kind of experiment: AUC (0 to last) in healthy human assessed as total radioactivity at 800 ug, po as single dose by LC-MS/MS analysis. In kind it is ADME, organism-based, Plasma. The following applies: in vivo.

`CCc1cc2c(cc1C(C)O)CC(NC[C@H](O)c1ccc(O)c3[nH]c(=O)ccc13)C2` (stereo in doubt; P30.3): the Drug recovery in [1] was 6.33%; in data set [2], “<= 6%”; in data set [3], 0.31%.

In the case of `CCc1cc2c(cc1C(C)O)CC(NC[C@H](O)c1ccc(O[C@@H]3O[C@H](C(=O)O)[C@@H](O)[C@H](O)[C@H]3O)c3[nH]c(=O)ccc13)C2` (stereo partly drawn), the Drug recovery is on record as 0% in [1] and 0.83% in data set [3]. Besides, the values for the Drug uptake in the data set on Serum [4], in the data set with Serum [5] and with Serum [7] were 0.12 ngequiv/ml, 5.78% and 9.31%, respectively. In the data set on Serum [6], the AUC was 0.82 ng.Eq.hr/ml.

As to `CCc1cc2c(cc1CC)CC(NC[C@H](O)c1ccc(O)c3[nH]c(=O)ccc13)C2.O=C(O)/C=C\C(=O)O` [INDACATEROL MALEATE], the values for the Drug recovery in [8], in data set [2] and in [11] were 0.34%, 54% and 54.42%, respectively. In [9], this compound registered a Cmax of 0.47 ng/mL. In addition, in data set [10], the Tmax came to 1.75 h. Moreover, the area under the curve AUC(0-t) at 12 h in [12] worked out at 1.81 ng·h/mL.

With `CCc1cc2c(cc1CC)CC(NC[C@H](O)c1ccc(O[C@@H]3O[C@H](C(=O)O)[C@@H](O)[C@H](O)[C@H]3O)c3[nH]c(=O)ccc13)C2`, the Drug recovery was found to be 0% in data set [1] and 0.53% in data set [3]. Also, the figures for the Drug uptake in the data set on Serum [4], with Serum [5] and in the data set on Serum [7] were 0.1 ngequiv/ml, 4.22% and 7.42%, respectively. This compound gave an AUC with Serum [6] of 0.6 ng.Eq.hr/ml.

For the compound `CCc1cc2c(cc1CC)CC(N)C2`, the Drug recovery in data set [1] was 1.7%; in data set [2] it was “<= 6%”; in data set [3], 0%. For the same compound, the Drug metabolism entry with Serum [13] is on record as “metabolite_detected”.

For the compound `CCc1cc2c(cc1CC)CC(N(C[C@H](O)c1ccc(O)c3[nH]c(=O)ccc13)[C@@H]1O[C@H](C(=O)O)[C@@H](O)[C@H](O)[C@H]1O)C2`, the Drug metabolism entry in the data set with Serum [13] is given as “metabolite_detected”.

`CCc1cc2c(cc1CC)CC(NCC(=O)O)C2`: the Drug recovery amounted to 0% in [1] and 0.97% in [3]. Moreover, the Drug metabolism result in the data set on Serum [13] is recorded as “metabolite_detected”.

Regarding `CCc1cc2c(cc1[14CH2]C)CC(NC[C@H](O)c1ccc(O)c3[nH]c(=O)ccc13)C2` (stereo partly drawn), the Drug uptake turned out to be 31.4% in the data set on Serum [14], 32.5% in the data set with Serum [16] and 0.42 ngequiv/ml in the data set on Serum [18]. This compound displayed an AUC with Serum [15] of 4.58 ng.Eq.hr/ml. The Drug recovery in [17] was 9.7%; in [22], 85.3%. Further, the Drug metabolism result with Serum [19], with Serum [20] and in the data set with Serum [21] was “metabolite_detected” each time. Also, the Tmax in the data set on Homo sapiens [23] turned out to be 2.5 h. For the same compound, in the data set with Homo sapiens [24], the Cmax was 1.4 ng.Eq/ml. The AUClast in the data set with Homo sapiens [25] is listed as 27.2 ng.Eq.hr/ml.

Regarding `CCc1cc2c(cc1C(C)O)CC(NC[C@H](O)c1ccc(O)c3[nH]c(=O)ccc13)C2` (stereo in doubt; P26.9), the Drug recovery in data set [1] stood at 17.44%; in data set [2] it was 17%; in data set [3] it was 1.24%. For the same compound, the Drug uptake is 0.18 ngequiv/ml in the data set on Serum [4], 12.4% in the data set on Serum [5] and 13.2% in the data set on Serum [7]. The compound also yielded an AUC in the data set with Serum [6] of 1.8 ng.Eq.hr/ml.
